The source of these data is ChEMBL document CHEMBL3259779, “Discovery of pyrazolopyridones as a novel class of noncovalent DprE1 inhibitor with potent anti-mycobacterial activity” (J Med Chem, 2014).

Format in all cases: functional
In assay [1] the test system is Mycobacterium tuberculosis. The assay can be described thus: Antimycobacterial activity against Mycobacterium tuberculosis overexpressing DprE1 assessed as growth inhibition by resazurin assay. (In general: The colour change of resazurin is a common sign of viable cells or microbes.)
For assay [2], the system named is Mycobacterium tuberculosis. Nature of the assay: Antimycobacterial activity against BTZ043-resistant Mycobacterium tuberculosis harboring DprE1 C-G mutant assessed as growth inhibition by resazurin assay.
For assay [3], the system named is Mycobacterium tuberculosis. Nature of the assay: Antimycobacterial activity against BTZ043-resistant Mycobacterium tuberculosis harboring DprE1 C-S mutant assessed as growth inhibition by resazurin assay.
For assay [4], the system named is Mycobacterium tuberculosis. Nature of the assay: Antimycobacterial activity against 3-cyclopropyl-1-phenyl-5-((3-(trifluoromethyl)benzylamino)-methyl)-1H-pyrazolo[3,4-b]pyridin-6(7H)-one-resistant Mycobacterium tuberculosis clone 8.1 assessed as growth inhibition by resazurin assay. The settings on record: clone 8.1, 7 h.
The test system of assay [5] is Mycobacterium tuberculosis. The assay can be described thus: Antimycobacterial activity against 3-cyclopropyl-1-phenyl-5-((3-(trifluoromethyl)benzylamino)-methyl)-1H-pyrazolo[3,4-b]pyridin-6(7H)-one-resistant Mycobacterium tuberculosis clone 8.2 assessed as growth inhibition by resazurin assay. The note with it: clone 8.2, 7 h.
Assay [6] concerns Mycobacterium tuberculosis. Nature of the assay: Antimycobacterial activity against 3-cyclopropyl-1-phenyl-5-((3-(trifluoromethyl)benzylamino)-methyl)-1H-pyrazolo[3,4-b]pyridin-6(7H)-one-resistant Mycobacterium tuberculosis clone 8.3 assessed as growth inhibition by resazurin assay. The note with it: clone 8.3, 7 h.
Assay [7] deals with Mycobacterium tuberculosis. Nature of the assay: Antimycobacterial activity against streptomycin-resistant Mycobacterium tuberculosis 136570 assessed as growth inhibition after 2 to 3 weeks by turbidometry.
Assay [8] relates to Mycobacterium tuberculosis. The assay can be described thus: Antimycobacterial activity against isoniazid-resistant Mycobacterium tuberculosis 912253 assessed as growth inhibition after 2 to 3 weeks by turbidometry.
The subject of assay [9] is Mycobacterium tuberculosis. Nature of the assay: Antimycobacterial activity against rifampin-resistant Mycobacterium tuberculosis 19000 assessed as growth inhibition after 2 to 3 weeks by turbidometry.
Assay [10] relates to Mycobacterium tuberculosis. Nature of the assay: Antimycobacterial activity against ethambutol-resistant Mycobacterium tuberculosis 17003 assessed as growth inhibition after 2 to 3 weeks by turbidometry.
In assay [11] the test system is Mycobacterium tuberculosis. The assay can be described thus: Antimycobacterial activity against ofloxacin-resistant Mycobacterium tuberculosis 12119 assessed as growth inhibition after 2 to 3 weeks by turbidometry.

A word on the MIC: it is the lowest concentration that inhibits growth of the organism.

Values after ≈ are worked out from the molar mass of the structure shown. Where only a bound is given, the exact number is not on record here.

Regarding `Cc1ccc(C(F)(F)F)cc1CNCc1cc2c(C3CC3)nn(-c3ccccc3)c2[nH]c1=O`, the MIC was 1.2 µM (≈ 0.543 µg/mL) in assay [1]; greater than 100 µM in assay [2]; 0.3 µM (≈ 0.136 µg/mL) in assay [3]; 0.3 µM (≈ 0.136 µg/mL) in [4]; greater than 100 µM in assay [5]; 0.2 µM (≈ 0.0905 µg/mL) in [6].

`O=c1[nH]c2c(cc1CNCc1cccc(C(F)(F)F)n1)c(C1CC1)nn2-c1ccccc1`: the MIC in assay [1] was 50 µM (≈ 22 µg/mL); in assay [2], 100 µM (≈ 43.9 µg/mL); in assay [3], 100 µM (≈ 43.9 µg/mL); in assay [4], 1.2 µM (≈ 0.527 µg/mL); in [5], greater than 100 µM; in assay [6] it was 0.2 µM (≈ 0.0879 µg/mL).

As for `O=c1[nH]c2c(cc1CNCc1cc(C(F)(F)F)ccc1F)c(C1CC1)nn2-c1ccccc1`, the MIC amounted to 100 µM (≈ 45.6 µg/mL) in assay [1]; 25 µM (≈ 11.4 µg/mL) in assay [2]; 1.2 µM (≈ 0.548 µg/mL) in [3]; 100 µM (≈ 45.6 µg/mL) in assay [4]; 0.08 µM (≈ 0.0365 µg/mL) in assay [5]; 0.2 µM (≈ 0.0913 µg/mL) in [6].

Regarding `CC1COc2c(N3CCN(C)CC3)c(F)cc3c(=O)c(C(=O)O)cn1c23` (stereo not drawn) [OFLOXACIN], the MIC in [7] was 0.7 µM (≈ 0.253 µg/mL); in assay [8] it was 0.7 µM (≈ 0.253 µg/mL); in assay [9] it was 0.7 µM (≈ 0.253 µg/mL); in assay [10], 0.7 µM (≈ 0.253 µg/mL); in assay [11], greater than 5 µM.

For `Cc1nn(-c2ccccc2)c2[nH]c(=O)c(CNCc3cccc(C(F)(F)F)c3)cc12`, the MIC in assay [7] came out at 3.1 µM (≈ 1.28 µg/mL); in [8], 6.2 µM (≈ 2.56 µg/mL); in assay [9] it was 3.1 µM (≈ 1.28 µg/mL); in assay [10] it was 3.1 µM (≈ 1.28 µg/mL); in assay [11], 1.6 µM (≈ 0.66 µg/mL); in [1], 2.5 µM (≈ 1.03 µg/mL). In addition, the MIC is 0.3 µM (≈ 0.124 µg/mL) in assay [2]; 100 µM (≈ 41.2 µg/mL) in assay [3]; greater than 100 µM in [4]; 100 µM (≈ 41.2 µg/mL) in assay [5]; 0.2 µM (≈ 0.0825 µg/mL) in [6].

`O=c1[nH]c2c(cc1CNCc1cccc(C(F)(F)F)c1)c(C1CC1)nn2-c1ccccc1`: the MIC worked out at 1.6 µM (≈ 0.702 µg/mL) in assay [7]; 3.1 µM (≈ 1.36 µg/mL) in assay [8]; 1.6 µM (≈ 0.702 µg/mL) in assay [9]; 1.6 µM (≈ 0.702 µg/mL) in assay [10]; 1.6 µM (≈ 0.702 µg/mL) in assay [11]; 0.6 µM (≈ 0.263 µg/mL) in [1]. Further, the MIC is 50 µM (≈ 21.9 µg/mL) in assay [2]; greater than 100 µM in [3]; 50 µM (≈ 21.9 µg/mL) in assay [4]; 0.1 µM (≈ 0.0438 µg/mL) in [5]; 0.2 µM (≈ 0.0877 µg/mL) in assay [6].

For the compound `CC[C@@H](CO)NCCN[C@@H](CC)CO` [ETHAMBUTOL], the MIC in assay [7] is 2 µM (≈ 0.409 µg/mL); in [8] it was 2 µM (≈ 0.409 µg/mL); in assay [9], 2 µM (≈ 0.409 µg/mL); in assay [10], greater than 20 µM; in assay [11], 2 µM (≈ 0.409 µg/mL).

Regarding `CN[C@@H]1[C@H](O[C@H]2[C@H](O[C@H]3[C@H](O)[C@@H](O)[C@H](N=C(N)N)[C@@H](O)[C@@H]3N=C(N)N)O[C@@H](C)[C@]2(O)C=O)O[C@@H](CO)[C@H](O)[C@H]1O` [STREPTOMYCIN], the MIC in [7] is greater than 5 µM; in [8], 0.3 µM (≈ 0.174 µg/mL); in assay [9], 0.3 µM (≈ 0.174 µg/mL); in assay [10] it was 0.3 µM (≈ 0.174 µg/mL); in assay [11] it was 0.3 µM (≈ 0.174 µg/mL).

`CO[C@H]1/C=C/O[C@@]2(C)Oc3c(C)c(O)c4c(O)c(c(/C=N/N5CCN(C)CC5)c(O)c4c3C2=O)NC(=O)/C(C)=C\C=C\[C@H](C)[C@H](O)[C@@H](C)[C@@H](O)[C@@H](C)[C@H](OC(C)=O)[C@@H]1C` [RIFAMPIN]: the MIC is 0.02 µM (≈ 0.0165 µg/mL) in assay [7]; 0.02 µM (≈ 0.0165 µg/mL) in assay [8]; greater than 5 µM in [9]; 0.02 µM (≈ 0.0165 µg/mL) in [10]; 0.02 µM (≈ 0.0165 µg/mL) in assay [11].

For the compound `C[C@H]1COC2(CCN(c3nc(=O)c4cc(C(F)(F)F)cc([N+](=O)[O-])c4s3)CC2)O1` [BTZ-043], the MIC is greater than 100 µM in assay [1]; 0.6 µM (≈ 0.259 µg/mL) in [2]; 0.3 µM (≈ 0.129 µg/mL) in assay [3]; greater than 100 µM in assay [4]; 100 µM (≈ 43.1 µg/mL) in assay [5]; 12.5 µM (≈ 5.39 µg/mL) in assay [6].

`NNC(=O)c1ccncc1` [ISONIAZID]: the MIC is 0.2 µM (≈ 0.0274 µg/mL) in assay [7]; greater than 29 µM in assay [8]; 0.2 µM (≈ 0.0274 µg/mL) in assay [9]; 0.2 µM (≈ 0.0274 µg/mL) in assay [10]; 0.2 µM (≈ 0.0274 µg/mL) in assay [11]; 100 µM (≈ 13.7 µg/mL) in assay [1]. The MIC in assay [2] was 0.3 µM (≈ 0.0411 µg/mL); in [3], 0.1 µM (≈ 0.0137 µg/mL); in assay [4] it was 100 µM (≈ 13.7 µg/mL); in assay [5], greater than 100 µM; in assay [6], 0.2 µM (≈ 0.0274 µg/mL).

With `O=c1[nH]c2c(cc1CNCc1cccc(C(F)(F)F)c1F)c(C1CC1)nn2-c1ccccc1`, the MIC in [1] is 25 µM (≈ 11.4 µg/mL); in assay [2] it was 1.2 µM (≈ 0.548 µg/mL); in [3] it was greater than 100 µM; in [4] it was 0.6 µM (≈ 0.274 µg/mL); in assay [5], 0.04 µM (≈ 0.0183 µg/mL); in assay [6] it was 0.2 µM (≈ 0.0913 µg/mL).
